This is an account of results in ChEMBL document CHEMBL6078662, “Discovery of 3-(2-aminobenzo[d]thiazol-5-yl) benzamide derivatives as potent anticancer agents via ROR1 inhibition” (Bioorg Med Chem, 2025).

Active and inactive are the calls of the source.

One data set has as its system A549. The data set is described as follows: Antiproliferative activity against human A549 cells assessed as inhibition of cell proliferation incubated for 72 hrs by MTT assay. Type of data set: functional, cell-based. Particulars: for IC50: A549, 72 h.
The test system of a further data set is PC-9. The data set is described as follows: Antiproliferative activity against human PC-9 cells assessed as inhibition of cell proliferation incubated for 72 hrs by MTT assay. The format is functional, cell-based. Particulars: for IC50: PC-9, 72 h. For orientation: Formazan colour is commonly taken as a measure of viable cells.
Data set [1] has as its system NCI-H1975. The data set is described as follows: Antiproliferative activity against human NCI-H1975 cells assessed as inhibition of cell proliferation incubated for 72 hrs by MTT assay. Type of data set: functional, cell-based. Particulars: for IC50: NCI-H1975, 72 h.
Data set [2] in a line: Cytotoxicity against human MRC5 cells assessed as inhibition of cell proliferation incubated for 72 hrs by MTT assay. The format is toxicity, cell-based.
Data set [3] in a line: Selectivity index, ratio of IC50 for cytotoxicity against human MRC5 cells assessed as inhibition of cell proliferation to IC50 for antiproliferative activity against human NCI-H1975 cells assessed as inhibition of cell proliferation. Type of data set: toxicity, cell-based. The conditions noted are these: MRC5 cells and NCI-H1975 cells, read-out: Ratio IC50.
The test system of data set [4] is NCI-H1975. The data set is described as follows: Inhibition of colony formation in human NCI-H1975 cells assessed as decrease in number of colonies incubated for 72 hrs by crystal violet staining based assay. The format is functional, cell-based. The conditions noted are these: dose 1.75-7 µM.
The subject of data set [5] is NCI-H1975. Briefly: Antiproliferative activity against human NCI-H1975 cells assessed as suppression of cell growth incubated for 72 hrs by MTT assay. The format is functional, cell-based. Particulars: dose 7.0 µM.
The target of data set [6] is Inactive tyrosine-protein kinase transmembrane receptor ROR1 (Homo sapiens) (UniProt Q01973). Briefly: Inhibition of ROR1 phosphorylation in human NCI-H1975 cells upto 7 uM incubated for 48 hrs by Western blot analysis. Type of data set: cell-based. For orientation: A western blot detects proteins with antibodies after separation by electrophoresis.
The test system of data set [7] is NCI-H1975. The data set is described as follows: Inhibition of SRC phosphorylation in human NCI-H1975 cells upto 7 uM incubated for 48 hrs by Western blot analysis. The format is cell-based.
For data set [8], the target named is MAP kinase p38 (Homo sapiens) (UniProt O15264+Q15759+Q16539+P53778). Briefly: Inhibition of p38 phosphorylation in human NCI-H1975 cells upto 7 uM incubated for 48 hrs by Western blot analysis. The format is cell-based.
The target in data set [9] is Inactive tyrosine-protein kinase transmembrane receptor ROR1 (Homo sapiens) (UniProt Q01973). Briefly: Binding affinity to ROR1 in human NCI-H1975 cells assessed as increase in thermal stability at 10 uM at 57 to 62 degreeC incubated for 4 hrs by CETSA analysis. The format is cell-based.
The target is the same in data set [10]. The data set is described as follows: Binding affinity to ROR1 in human NCI-H1975 cells assessed as protection of pronase-mediated protein degradation preincubated with compound for 1 hr followed by pronase E addition and measured after 10 mins by DARTS assay. The format is cell-based. Particulars: dose <= 100.0 µM, time 70.0 min.
In data set [11] the test system is NCI-H1975. The data set is described as follows: Inhibition of cell migration in human NCI-H1975 cells assessed as inhibition of wound closure at 1.75 to 7 uM measured at 24 to 48 hrs by wound healing assay. The format is functional, cell-based. Particulars: dose 1.75-7 µM, time 24-48 hrs.
Data set [12] deals with NCI-H1975. The data set is described as follows: Inhibition of cell migration in human NCI-H1975 cells assessed as inhibition of wound closure measured at 24 to 48 hrs by wound healing assay. Type of data set: functional, cell-based. Particulars: dose 1.75-7 µM, time 24-48 hrs.
Data set [13] has as its system NCI-H1975. The data set is described as follows: Inhibition of cell migration in human NCI-H1975 cells assessed as inhibition of wound closure at 1.75 to 7 uM by wound healing assay. The format is functional, cell-based. Particulars: dose 1.75-7 µM, time 24-48 hrs.
The subject of data set [14] is NCI-H1975. The data set is described as follows: Anti-invasive activity against human NCI-H1975 cells assessed as reduction in number of invaded cells at 7 uM incubated for 24 hrs by crystal violet staining based light microscopic analysis. The format is functional, cell-based.
Data set [15] deals with NCI-H1975. Briefly: Effect on MMP2 expression level in human NCI-H1975 cells incubated for 48 hrs by Western blot analysis. Type of data set: functional, cell-based. Particulars: dose <= 7.0 µM.
The test system of data set [16] is NCI-H1975. Briefly: Effect on ZEB1 expression level in human NCI-H1975 cells incubated for 48 hrs by Western blot analysis. Type of data set: functional, cell-based. Particulars: dose <= 7.0 µM.
The subject of data set [17] is NCI-H1975. Briefly: Effect on Vimentin expression level in human NCI-H1975 cells incubated for 48 hrs by Western blot analysis. The format is functional, cell-based. The conditions noted are these: dose <= 7.0 µM.
For data set [18], the system named is NCI-H1975. The data set is described as follows: Effect on N-cadherin expression level in human NCI-H1975 cells incubated for 48 hrs by Western blot analysis. The format is functional, cell-based. The conditions noted are these: dose <= 7.0 µM.
The subject of data set [19] is NCI-H1975. The data set is described as follows: Effect on E-cadherin expression level in human NCI-H1975 cells incubated for 48 hrs by Western blot analysis. The format is functional, cell-based. The conditions noted are these: dose <= 7.0 µM.
For data set [20], the system named is NCI-H1975. The data set is described as follows: Induction of cell cycle arrest in human NCI-H1975 cells assessed as accumulation of cells at G1 phase incubated for 24 hrs by PI staining based flow cytometry analysis. Type of data set: functional. Particulars: dose 1.75-7 µM.
For data set [21], the system named is NCI-H1975. Briefly: Induction of cell cycle arrest in human NCI-H1975 cells assessed as decrease in accumulation of cells at G2/M phase incubated for 24 hrs by PI staining based flow cytometry analysis. The format is functional. Particulars: dose 1.75-7 µM. (Flow cytometry measures light scatter and fluorescence of single cells or particles in a stream.)
The subject of data set [22] is NCI-H1975. The data set is described as follows: Induction of cell cycle arrest in human NCI-H1975 cells assessed as reduction in cyclin-D1 expression incubated for 24 hrs by Western blot analysis. Type of data set: functional, cell-based. The conditions noted are these: dose 1.75-7 µM.
For data set [23], the system named is NCI-H1975. Briefly: Induction of cell cycle arrest in human NCI-H1975 cells assessed as reduction in c-Myc expression incubated for 24 hrs by Western blot analysis. Type of data set: functional, cell-based. Particulars: dose 1.75-7 µM.
Data set [24] has as its system NCI-H1975. Briefly: Induction of cell cycle arrest in human NCI-H1975 cells assessed as reduction in CDK2 expression incubated for 24 hrs by Western blot analysis. The format is functional, cell-based. The conditions noted are these: dose 1.75-7 µM.
A short description of data set [25]: Half life in male Sprague-Dawley rat at 10 mg/kg, po measured upto 24 hrs by LC-MS/MS analysis. The format is ADME, organism-based. Particulars: in vivo.
Data set [26] in a line: Tmax in male Sprague-Dawley rat at 10 mg/kg, po measured upto 24 hrs by LC-MS/MS analysis. Particulars: in vivo. The format is ADME, organism-based.
The nature of data set [27]: Cmax in male Sprague-Dawley rat at 10 mg/kg, po measured upto 24 hrs by LC-MS/MS analysis. The format is ADME, organism-based. Particulars: in vivo.
Data set [28] can be described thus: AUC (0 to infinity) in male Sprague-Dawley rat at 10 mg/kg, po measured upto 24 hrs by LC-MS/MS analysis. Particulars: in vivo. The format is ADME, organism-based.
Data set [29] in a line: MRT (0 to infinity) in male Sprague-Dawley rat at 10 mg/kg, po measured upto 24 hrs by LC-MS/MS analysis. The format is ADME, organism-based. Particulars: in vivo.

Chain of Inactive tyrosine-protein kinase transmembrane receptor ROR1 (Homo sapiens) (Q01973 whole entry): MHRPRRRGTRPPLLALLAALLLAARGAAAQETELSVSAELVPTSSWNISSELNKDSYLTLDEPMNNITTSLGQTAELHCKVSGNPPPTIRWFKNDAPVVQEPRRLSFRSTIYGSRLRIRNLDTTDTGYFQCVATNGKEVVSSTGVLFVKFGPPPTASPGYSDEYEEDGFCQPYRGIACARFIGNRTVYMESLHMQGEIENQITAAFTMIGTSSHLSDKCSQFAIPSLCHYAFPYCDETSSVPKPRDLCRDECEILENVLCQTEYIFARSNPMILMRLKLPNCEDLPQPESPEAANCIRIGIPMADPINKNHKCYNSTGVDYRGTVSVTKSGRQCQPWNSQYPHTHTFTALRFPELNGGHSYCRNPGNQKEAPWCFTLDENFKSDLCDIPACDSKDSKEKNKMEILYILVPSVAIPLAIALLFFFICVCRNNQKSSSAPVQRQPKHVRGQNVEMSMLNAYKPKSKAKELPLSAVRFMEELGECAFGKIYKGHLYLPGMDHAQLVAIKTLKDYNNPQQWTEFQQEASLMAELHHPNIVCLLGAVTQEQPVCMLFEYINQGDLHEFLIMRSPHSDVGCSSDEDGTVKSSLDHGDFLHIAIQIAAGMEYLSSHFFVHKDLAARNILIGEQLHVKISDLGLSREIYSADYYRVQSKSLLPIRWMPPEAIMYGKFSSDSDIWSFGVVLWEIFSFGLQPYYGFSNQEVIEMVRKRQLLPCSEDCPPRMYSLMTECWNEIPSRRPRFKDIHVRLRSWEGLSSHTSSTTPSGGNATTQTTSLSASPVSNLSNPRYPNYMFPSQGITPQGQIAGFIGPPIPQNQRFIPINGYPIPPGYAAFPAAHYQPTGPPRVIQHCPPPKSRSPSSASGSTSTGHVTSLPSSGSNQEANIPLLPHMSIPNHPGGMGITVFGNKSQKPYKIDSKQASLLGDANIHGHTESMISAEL

As a reminder, the IC50 is the point on the concentration scale where inhibition reaches its midpoint. Usually half-life stands for the time needed for the level to fall by half in the phase considered. The low end stands for fast loss, the high end for slow loss. The Tmax is the time from dosing to the highest level. In general, Cmax refers to the maximum level reached in the sampled fluid or tissue. As a reminder, the AUC(0-inf) is total exposure, with the tail of the curve extrapolated. As usually defined, the MRT inf is the average time that molecules of a dose stay in the body. Regarding `CC(C)CCNC(=O)c1cccc(-c2ccc3sc(NC(=O)c4ccc(F)cc4)nc3c2)c1`, the IC50 amounted to 18.2 µM with A549, 8.11 µM with PC-9 and 3.5 µM in the data set with NCI-H1975 [1]. Also, the Activity result (in the data set on A549 (dose <= 40.0 µM); in the data set on PC-9 (dose <= 40.0 µM); in the data set with NCI-H1975 [1] (dose <= 40.0 µM); in the data set with NCI-H1975 [5]; in [10]; in the data set with NCI-H1975 [15]) was “Dose-dependent-effect” in each case. For the same compound, the Activity result in the data set on NCI-H1975 [16], in the data set with NCI-H1975 [17], with NCI-H1975 [18], in the data set on NCI-H1975 [19], in the data set on NCI-H1975 [20] and in the data set on NCI-H1975 [21] was “Dose-dependent-effect” throughout. Further, the Activity entry with NCI-H1975 [22], in the data set with NCI-H1975 [23] and with NCI-H1975 [24] was “Dose-dependent-effect” throughout. Besides, the IC50 at 72 h in data set [2] is more than 80 µM. In addition, in data set [3], the selectivity ratio is more than 22.9. Besides, the inhibition entry with NCI-H1975 [4] was “Dose-dependent-effect”; in the data set with NCI-H1975 [12] it was “Dose-dependent-effect”; with NCI-H1975 [13], “Time-dependent-effect”. Besides, the inhibition entry (in data set [6]; with NCI-H1975 [7]; in [8]; in the data set with NCI-H1975 [11]) was “Active” in each case. In addition, the result (in data set [9]; in the data set on NCI-H1975 [14]) was Active. The half-life in data set [25] is 601 min. Besides, the Tmax in [26] was 2 h. The same compound returned a Cmax in data set [27] of 1120 ng/mL. In [28], this compound displayed an AUC(0-inf) of 12400 ng·h/mL. The compound also gave an MRT inf in data set [29] of 18.7 h.
On to `CCC(=O)Nc1nc2cc(-c3cccc(C(=O)NCC4CC4)c3)ccc2s1`, for which the IC50 in the data set on A549, in the data set on PC-9 and in the data set on NCI-H1975 [1] was more than 40 µM in each case. Besides, the 50% inhibitory concentration (IC50) at 72 h in data set [2] is more than 80 µM.
Take `CC(=O)Nc1nc2cc(-c3cccc(C(=O)NCCC(C)C)c3)ccc2s1`: the IC50 with A549 was more than 40 µM; in the data set on PC-9, 24.7 µM; in the data set on NCI-H1975 [1], more than 40 µM. Further, in [2], the IC50 at 72 h is more than 80 µM.
For the compound `CC(=O)Nc1nc2cc(-c3cccc(C(=O)NCc4ccc(F)cc4)c3)ccc2s1`, the concentration for half-maximal inhibition (IC50) in the data set with A549 is more than 40 µM; in the data set on PC-9, more than 40 µM; in the data set on NCI-H1975 [1], 9.35 µM. Besides, in data set [2], the IC50 at 72 h is more than 80 µM. Moreover, the selectivity ratio in data set [3] was more than 8.56.
Consider `COCCNC(=O)c1cccc(-c2ccc3sc(NC(=O)C(C)(C)C)nc3c2)c1`, for which the 50% inhibitory concentration (IC50) was more than 40 µM in the data set on A549, more than 40 µM with PC-9 and 11.1 µM in the data set on NCI-H1975 [1]. Besides, the 50% inhibitory concentration (IC50) at 72 h in data set [2] was more than 80 µM. The selectivity ratio in data set [3] is more than 7.23.
Turning to `COc1ccc(CNC(=O)c2cccc(-c3ccc4sc(NC(=O)C(C)(C)C)nc4c3)c2)cc1`, the IC50 is more than 40 µM in the data set on A549, more than 40 µM in the data set on PC-9 and 12.3 µM with NCI-H1975 [1]. The IC50 at 72 h in data set [2] is more than 80 µM. For the same compound, in data set [3], the selectivity ratio was more than 6.52.
As for `CNc1cccc(NC(=O)c2ccc(C)c(C#Cc3cnc4cccnn34)c2)c1`, the IC50 in the data set on A549 is 27.5 µM; in the data set on NCI-H1975 [1], 66.7 µM.
For `CCC(=O)Nc1nc2cc(-c3cccc(C(=O)NCc4ccc(OC)cc4)c3)ccc2s1`, the IC50 in the data set with A549, in the data set on PC-9 and with NCI-H1975 [1] was more than 40 µM in each case. Also, the IC50 at 72 h in [2] was more than 80 µM.
Consider `CC(=O)Nc1nc2cc(-c3cccc(C(=O)NCC4CC4)c3)ccc2s1`, for which the IC50 in the data set on A549, in the data set on PC-9 and with NCI-H1975 [1] was more than 40 µM in each case. For the same compound, in data set [2], the IC50 at 72 h is more than 80 µM.
Take `CCC(=O)Nc1nc2cc(-c3cccc(C(=O)NCCOC)c3)ccc2s1`: the IC50 in the data set on A549, with PC-9 and with NCI-H1975 [1] was more than 40 µM in each case. In data set [2], the IC50 at 72 h was more than 80 µM.
Turning to `CCCC(=O)Nc1nc2cc(-c3cccc(C(=O)NCCOC)c3)ccc2s1`, the IC50 in the data set on A549, with PC-9 and in the data set on NCI-H1975 [1] was more than 40 µM each time. For the same compound, the half-inhibitory concentration (IC50) at 72 h in [2] is more than 80 µM.
